Laboratory results published in patent US20260284050A1, “ACTIVATORS OF THE COLD STRESS RESPONSE AND USES THEREOF” (priority 2023, published 2026).
Where two headings read alike, the source gives them in different places. Where a SMILES comes first, the peptide text is derived from it. The star is where a group is joined. Cbz = O=C(OCc1ccccc1)*

Experiments:
SP1+MCRE-MHI = assay: cells; conditions: HEK293FT; for fold induction at 20 µM: Homo sapiens
Procedure: Briefly, Lipofectamine 3000 (Thermofisher Scientific, L3000015) was used to transfect the SP1+MCRE indicator into the HEK293FT cell line. 24 h after transfection, 30000 cells were plated into each well of a 96 well black well plate. 48 h after transfection the cells were exposed to FDA Approved Drug Screening Library (L1300-Z298012) via the High Throughput Screening Services (ChemCore) at Johns Hopkins University. Each drug was exposed in 20 μM concentration. Total well GFP was read with the ClarioStarPlus Plate Reader (settings: gain 1500, 470-15 excitation and emission 515-20 at focal height 2.6) 16, 28, and 40 h after exposure of the library. Increase in fluorescence was calculated with dividing GFP reads from positive control at each time point with GFP reads of each well exposed to drug at the same timepoint for wells in the same lane. Compounds were validated in same concentration (20 μM). For validation cells were exposed to the drug for 24 hours, and evaluated by FACS as described in the section Transfection of indicators into cell lines.
To explore this in an unbiased manner, a systematic library drug screen (1953 FDA-approved inhibitors) was performed using HEK293FT cells transfected with the SP1+MCRE-MHI. […] Cells transfected with said MHI were exposed to the drug library (20 μM concentration) and fluorescence was measured after 16-, 28- and 40-hours of drug exposure. Drugs that could increase the indicator's fluorescence at least >3.75 times at one of the time points were further investigated.

SP1, RBM3 and CIRBP = assay: Western blot of SP1, RBM3 and CIRBP after compound exposure; type: cell-based, human; conditions: 24 h exposure at either 32° C. or 37° C.
Procedure: (§1) Cells were washed with PBS and then lysed for 30 min on ice in RIPA buffer (50 mM Tris HCl ph8, 150 mM NaCl, 1% NP-40, 1% Sodium deoxycholate, 0.1% SDS, 2 mM EDTA, phosphatase inhibitor (Cell signaling, Cat. #5870S), and Halt™ Protease Inhibitor Cocktail (Thermo Fisher, Cat. #78437). The lysates were centrifuged at 16,000×g for 20 minutes at 4° C. and the supernatants were collected. The supernatants were diluted with 4× loading buffer (Li-cor) and heated at 95° C. for 5 mins. The protein concentration was measured using Pierce™ BCA Assay Kit (Thermo Fisher). 20-30 μg protein samples were loaded into gels and separated by SDS-PAGE. They were transferred to polyvinylidene fluoride (PVDF) membranes and blocked in 5% bovine serum albumin in Tris-buffered saline with Tween 20 for 1 hour. Primary antibodies (rabbit anti-CIRBP, 1:2000, Cat. #10209-2-AP, Proteintech; rabbit anti-RBM3, 1:1000, CAT. #14363-1-AP, Proteintech; rabbit anti-SP1 1:1000, CAT. #21962-1-AP, Proteintech; mouse anti-Lamin 1, 1:5000, CAT. #66095-1-Ig, Proteintech; rabbit anti-SMYD5, 1:1000, in-house; rabbit anti-Phospho-SP1, 1:1000, CAT. #PA5-104771, Proteintech) were applied to respective membranes after washing, and incubated at 4° C. overnight. […] After washing, the protein bands were visualized on the Odyssey® CLx Infrared Imaging System and quantified by Image J software.

HEK293 cells = assay: Cell cycle phase evaluation of HEK293 cells; type: cell-based, human; conditions: for cell cycle arrest: HEK293 cells exposed to compound
Procedure: To exclude the possibility of cell cycle arrest or increased apoptosis, cell cycle phase of HEK293 cells exposed to Pozitinib and Entacapone was evaluated. […] Similarly, there were no signs of activation of the MHIs after exposure to an apoptotic agent.

SP1-MHI = assay: FACS validation in HEK293 cells with Cas9 and SP1-MHI; type: cell-based, human; conditions: 20 μM
Procedure: HEK293 cell lines were transfected when 70-90% confluency was reached. Either Lipofectamine™ 2000 or 3000 (Thermofisher Scientific, #11668027, #L3000015) was used according to the manufacture's protocol. The fluorescence of the indicators was measured via FACS up to 48 hours after transfection. FACS data were analysed with the FlowJo Software, where gates were created on living cells, single cells, GFP positive cells and the fluorescence for that population was measured.
Each drug was exposed in 20 μM concentration. […] Compounds were validated in same concentration (20 μM).
HEK293 cells with Cas9 and SP1-MHI were individually exposed to each compound (20 μM) for 16 hours at either 32° C. or 37° C. followed by FACS. […] (Entacapone, Poziotinib), indicating activation of response with drug without hypothermic stimulus.

CIRBP = assay: RT-qPCR of endogenous CIRBP relative to GAPDH; type: cell-based, human; conditions: 16 h exposure at 37° C.
Procedure: (§2) Total RNA from cells incubated at 32° C. or 37° C. was isolated, using Direct-zol™ RNA Microprep (Zymo Research, R2062), according to the manufacturer's instructions. The concentration of RNA was measured by NanoDrop™ One Microvolume UV-Vis Spectrophotometer (Thermo Scientificv™) followed by cDNA synthesis with High-Capacity cDNA Reverse Transcription Kit (Applied Biosystems™, 4368814) on MiniAmp™ Thermal Cycler (Applied Biosystems™). qPCR was performed using Luna® Universal qPCR Master Mix on CFX384™ Real-Time PCR Detection System (Bio-Rad). Each biological replicate of the RT-qPCR assay in this study was carried out in technical triplicates. Any technical replicate that deviated from other replicates by 0.4 cycle threshold (Ct) was removed from calculations of average Ct values. The primers used in this study are as follows: […]
(§3) To evaluate effects on the endogenous loci (CIRBP, RBM3 and SP1) real time quantitative polymerase chain reaction (RT-qPCR) was carried out after 16 h of either 32° C. or 37° C.—with or without the exposure to the compound during that time.

RBM3 = assay: RT-qPCR of endogenous RBM3 relative to GAPDH; type: cell-based, human; conditions: 16 h exposure at 37° C.
Procedure: as §2, §3

SP1 = assay: RT-qPCR of endogenous SP1 relative to GAPDH; type: cell-based, human; conditions: 16 h exposure at 37° C.
Procedure: as §2, §3

SMYD5 = SMYD5 levels at 32° C. with proteasome inhibition; type: cell-based, human; conditions: 6 hour exposure
Procedure: as §1, with “software. […]” for “software.”

[1] = 40 h, read-out: increase in fluorescence of the SP1+MCRE-MHI

Question: With Cc1[nH]c(/C=C2\C(=O)Nc3ccccc32)c(C)c1CCC(=O)O [Orantinib] as the compound, how does the fold induction at 20 µM (SP1+MCRE-MHI; [1]) read?
Answer: > 3.75

Question: What does the source list for CCN(CC)C(=O)/C(C#N)=C/c1cc(O)c(O)c([N+](=O)[O-])c1 [Entacapone]?
Answer: Western blot of SP1, RBM3 and CIRBP with versus without compound (SP1, RBM3 and CIRBP): significant difference (P<0.05; percentage of total cells in the S phase of cell cycle (HEK293 cells; 16 hours exposure at both 32° C. and 37° C.): slight increase; cell cycle arrest (HEK293 cells): Any signs of cell cycle arrest; fold induction at 20 µM (SP1+MCRE-MHI; [1]): > 3.75; mean fluorescence of SP1-MHI by FACS (SP1-MHI; 16 hours at 32° C.): significantly (P<0.01) potentiate fluorescence levels; mean fluorescence of SP1-MHI by FACS (SP1-MHI; 16 hours at 37° C.): significantly (P<0.001, P<0.0001) increased fluorescence

Question: Which results are given for Cc1ccc(C(=O)c2cc(O)c(O)c([N+](=O)[O-])c2)cc1 [Tolcapone]?
Answer: fold induction at 20 µM (SP1+MCRE-MHI; 16 h, read-out: relative increase of fluorescence of the SP1+MCRE-MHI compared to control): 1.8; fold induction at 20 µM (SP1+MCRE-MHI; 28 h, read-out: relative increase of fluorescence of the SP1+MCRE-MHI compared to control): 1.7; fold induction at 20 µM (SP1+MCRE-MHI; 40 h, read-out: relative increase of fluorescence of the SP1+MCRE-MHI compared to control): 1.9

Question: Which fold induction at 20 µM (SP1+MCRE-MHI; [1]) does the source give for CS(=O)(=O)CCNCc1ccc(-c2ccc3ncnc(Nc4ccc(OCc5cccc(F)c5)c(Cl)c4)c3c2)o1 [Lapatinib] here?
Answer: > 3.75

Question: For C=CC(=O)Nc1cccc(Nc2nc(Nc3ccc(N4CCN(C(C)=O)CC4)cc3OC)ncc2C(F)(F)F)c1 [Rociletinib], which fold induction at 20 µM (SP1+MCRE-MHI; [1]) is on record?
Answer: > 3.75

Question: With CC[C@H]1OC(=O)[C@H](C)[C@@H](O[C@H]2C[C@@](C)(OC)[C@@H](O)[C@H](C)O2)[C@H](C)[C@@H](O[C@@H]2O[C@H](C)C[C@H](N(C)C)[C@H]2O)[C@](C)(O)C[C@@H](C)C(=O)[C@H](C)[C@@H](O)[C@]1(C)O [Erythromycin] as the compound, how does the fold induction at 20 µM (SP1+MCRE-MHI; [1]) read?
Answer: > 3.75

Question: CC/C(=C(\c1ccccc1)c1ccc(OCCN(C)C)cc1)c1ccccc1 [Tamoxifen] was tested. Which fold induction at 20 µM (SP1+MCRE-MHI; [1]) did it give?
Answer: > 3.75

Question: Which “CIRBP mRNA expression” value (CIRBP) does the source give for C=CC(=O)N1CCC(Oc2cc3c(Nc4ccc(Cl)c(Cl)c4F)ncnc3cc2OC)CC1 [Poziotinib] here?
Answer: trend towards increase

Question: And the “RBM3 mRNA expression” value (RBM3)?
Answer: significantly (P<0.05) increased

Question: And the cell cycle arrest (HEK293 cells)?
Answer: Any signs of cell cycle arrest

Question: And the “SP1 mRNA expression” value (SP1)?
Answer: trend towards increase

Question: And the fold induction at 20 µM (SP1+MCRE-MHI; [1])?
Answer: > 3.75

Question: What about the “mean fluorescence of SP1-MHI by FACS” value (SP1-MHI; 16 hours at 37° C.) of the same compound?
Answer: significantly (P<0.001, P<0.0001) increased fluorescence

Question: CC(C)C[C@@H](C=O)NC(=O)[C@H](CC(C)C)NC(=O)[C@H](CC(C)C)NC(=O)OCc1ccccc1 [MG132] (Cbz-Leu-Leu-Leu-aldehyde) was tested. Which SMYD5 levels (SMYD5) did it give?
Answer: increases levels of SMYD5 at 32 °C to levels seen at 37 °C

Question: For CN(C)C/C=C/C(=O)Nc1cc2c(Nc3ccc(F)c(Cl)c3)ncnc2cc1O[C@H]1CCOC1 [Afatinib], which fold induction at 20 µM (SP1+MCRE-MHI; [1]) is on record?
Answer: > 3.75

Question: For C=CCN1CC[C@]23c4c5ccc(O)c4O[C@H]2C(=O)CC[C@@]3(O)[C@H]1C5 [Naloxone], which fold induction at 20 µM (SP1+MCRE-MHI; [1]) is on record?
Answer: > 3.75

Question: For C[C@@H](NCCCc1cccc(C(F)(F)F)c1)c1cccc2ccccc12 [Cincalcet], which “increase in fluorescence of the SP1+MCRE-MHI” value (SP1+MCRE-MHI; 20 μM, at one of the time points (16, 28, 40 h of drug exposure)) is on record?
Answer: > 3.75 times

Question: With Cc1nc(Nc2ncc(C(=O)Nc3c(C)cccc3Cl)s2)cc(N2CCN(CCO)CC2)n1 [Dasatinib] as the compound, how does the fold induction at 20 µM (SP1+MCRE-MHI; [1]) read?
Answer: > 3.75
